Columns and labels:
Type in all cases: cell-based, human
[1] = tested on: melanocytes irradiated with UVB at 20 mJ/cm^2 two times (senescent melanocytes); assay: β-galactosidase activity in senescent melanocytes after treatment with whitening material; conditions: 30 μM, medium changed every 3 days (4 times) from 48 h after UVB, read after two weeks, vs vehicle (DMSO) control; p<0.05 (FIG. 5a)
Experimental: Human primary melanocytes (Life Technologies, CA, USA) were cultured in a 5% CO2 incubator at room temperature by using M-254 medium (Gibco BRL, NY, USA) supplemented with human melanocyte growth supplement (HMGS) (Gibco BRL, NY, USA), placed on a 100 mm culture dish so that the number of cells was 2×10^5, allowed to attach to the dish wall for the night, and irradiated with UVB at a strength of 11 mJ/cm^2, 20 mJ/cm^2, and 30 mJ/cm^2 two times at an interval of 24 hours.
After UVB irradiation under the conditions of Example 1, β-galactosidase activity, which is a representative senescence index of cell, has been measured and it has been confirmed that the activity increased in proportion to the strength of UVB irradiated (FIG. 3a).
The cells determined in the most proper senescent state through the above-described Examples, namely, the cells prepared by irradiating the melanocytes with UVB at a strength of 20 mJ/cm^2 two times at an interval of 24 hours were cultured from the 48th hour after the UV ray irradiation in a medium containing Material A (melasolv, 30 μM) of a representative whitening material while changing the medium at an interval of 3 days (4 times in total). After two weeks, the β-galactosidase activity and the melanin content were compared to those of a control group (vehicle (DMSO) treated) (FIG. 5). […]

[2] = tested on: melanocytes irradiated with UVB at 20 mJ/cm^2 two times (senescent pigmentation model); assay: melanin content in senescent melanocytes after treatment with whitening material; conditions: 30 μM, medium changed every 3 days (4 times) from 48 h after UVB, read after two weeks, vs vehicle (DMSO) control; p<0.05 (FIG. 5b)
Experimental: Human primary melanocytes (Life Technologies, CA, USA) were cultured in a 5% CO2 incubator at room temperature by using M-254 medium (Gibco BRL, NY, USA) supplemented with human melanocyte growth supplement (HMGS) (Gibco BRL, NY, USA), placed on a 100 mm culture dish so that the number of cells was 2×10^5, allowed to attach to the dish wall for the night, and irradiated with UVB at a strength of 11 mJ/cm^2, 20 mJ/cm^2, and 30 mJ/cm^2 two times at an interval of 24 hours. The melanocytes were irradiated with UVB at a strength of 11 mJ/cm^2, 20 mJ/cm^2, and 30 mJ/cm^2, respectively, two times, cultured for 2 weeks, detached from the culture dish and counted, and the same number of cells were collected in a microtube, disrupted by adding RIPA assay buffer (Millipore, 20-188) thereto, and subjected to the centrifugation at 13,500 rpm for 30 minutes to obtain a precipitate. The precipitate was dissolved in a 1N sodium hydroxide (NaOH) solution, and the colors were compared to one another (FIG. 4a), and the absorbance was measured at 450 nm to compare the content of melanin (FIG. 4b). […]

p16 and p21 = p16 and p21 mRNA expression (Q-PCR) in senescent melanocytes after treatment with whitening material; conditions: treated for 2 weeks from 48 h after final UVB irradiation, four times at an interval of 3 days; p<0.05 / p<0.01 (FIG. 6)
Experimental: Human primary melanocytes (Life Technologies, CA, USA) were cultured in a 5% CO2 incubator at room temperature by using M-254 medium (Gibco BRL, NY, USA) supplemented with human melanocyte growth supplement (HMGS) (Gibco BRL, NY, USA), placed on a 100 mm culture dish so that the number of cells was 2×10^5, allowed to attach to the dish wall for the night, and irradiated with UVB at a strength of 11 mJ/cm^2, 20 mJ/cm^2, and 30 mJ/cm^2 two times at an interval of 24 hours. cDNA was prepared by obtaining RNA from cells 2 weeks after being irradiated with UVB at a strength of 20 mJ/cm^2 two times at an interval of 24 hours, and a change in mRNA level was measured by Q-PCR (Applied biosystems, 7500 Fast) by using p16 and p21 specific primers. As the Q-PCR experiment, a cycle at 95° C. for 15 seconds and at 60° C. for 60 seconds was repeatedly conducted 40 times in total, and the relative value of an increase in gene expression as compared to that of a control group was measured.

β-galactosidase activity [1]: decreases
SMILES: COc1cc(/C=C/C(=O)Oc2cc(C)ccc2C(C)C)cc(OC)c1OC [Material A, melasolv]
melanin content [2]: significantly decreases to the level of that of the control group | increased gene expression (p16 and p21) (p16 and p21): significantly inhibited

From patent US20190041383A1, “METHOD FOR PREPARING SENESCENT MELANOCYTES, CELLS PREPARED BY METHOD, AND METHOD FOR SCREENING FOR SENESCENCE-ALLEVIATING MATERIAL BY USING CELLS” (AMOREPACIFIC CORPORATION, priority 2015, published 2019)
